# Where two headings read alike, the source gives them in different places.
# Experiments:
# HIV type 1 = assay: In vitro anti-viral replication test (method of E De Clercq, MTT) against HIV type 1 in infected MT-4 cells; assay type: cell-based, HIV-1; conditions: for biological (inhibitory) activity against HIV-1, in words: in vitro, "significant" = CC50≥45 μg/mL and selectivity index ≥50; for HIV-1 SI: selectivity index, ratio CC50/EC50
# Experimental: (§1) The anti-viral replication efficiency of the molecules of the chemical composition of the invention was tested in vitro against the replication of the viruses HIV type 1 (strain MO and HIV type 2 (strain ROD) in the infected MT-4 cells.
# (§2) More specifically, the antiretroviral activity of the molecules was tested by effectively carrying out the method of E De Clercq in a microplate.
# (§3) This method consists of producing a cell culture of MT-4 in a microplate, containing as cell culture medium: the medium developed by the Roswell Park Memorial Institute (referred to as “RPMI 1640”), comprising of foetal calf serum, glutamine, sodium bicarbonate, and gentamicin as bacterial inhibitor.
# (§4) The molecules of the chemical composition of the invention are added at different concentrations into the cell growth medium. Each concentration of molecules to be tested is prepared in triplicate. The MT4 cells placed in the presence of the molecules to be tested are referred to as “treated cells”.
# (§5) In each cell growth well, a defined amount of HIV-1 or HIV-2 is added in order to obtain the same concentration of virus in each well.
# (§6) The cells placed in the presence of the HIV are referred to as “infected cells”.
# (§7) Five days after the start of the process of infecting the MT4 cells with HIV-1 or HIV-2 in the presence of the molecules to be tested at different concentrations, a count is taken of the number of living cells by means of an MTT (tetrazolium salt) colorimetric assay by measuring the optical density at 540 nm.
# (§8) As negative controls, use is made of cells without HIV 1 or HIV 2, referred to as “non-infected cells”, as well as of cells without the molecules to be tested referred to as “untreated cells”.
# (§9) Thus, succinctly stated, the method of E De Clercq provides the means to obtain a density measurement at 540 nm for: • the cells infected with HIV-1 or HIV-2, treated with the molecules of the composition of the invention; • the cells not infected with HIV, treated with the molecules of the composition of the invention; • the cells infected with HIV-1 or HIV-2, not treated with the molecules of the composition of the invention; • the cells not infected with HIV, not treated with the molecules of the composition of the invention.
# (§10) In particular, the effectiveness of the molecules of the composition of the invention was tested: • by measurement and calculation of the (median) 50% inhibitory concentration (IC50); • by measurement and calculation of the 50% cytotoxic concentration (CC50); • by measurement and calculation of the 50% effective concentration dose (EC50); and • by measurement and calculation of the selectivity index (SI), of the fractions containing the said molecules in the presence of the two strains of HIV.
# (§11) The IC50 is the concentration of the molecule that makes it possible to decrease by 50% the viral proliferation of the negative control in vitro for a given time period, that is to say of the HIV without substance, only in its growth culture medium.
# (§12) The EC50 is calculated using the following formula:
# [(ODT)HIV^+]−[(ODC)HIV^+]/[(ODT)HIV^−]−[(ODC)HIV^−]×100 […]
# HIV type 2 (strain ROD) = assay: In vitro anti-viral replication test (method of E De Clercq, MTT) against HIV type 2 (strain ROD) in infected MT-4 cells; assay type: cell-based, HIV-2; conditions: for biological (inhibitory) activity against HIV-2, in words: in vitro, "significant" = CC50≥45 μg/mL and selectivity index ≥50; for HIV-2 SI: selectivity index, ratio CC50/EC50
# Experimental: as §1, §2, §3
# The molecules of the chemical composition of the invention are added at different concentrations into the cell growth medium. […] The MT4 cells placed in the presence of the molecules to be tested are referred to as “treated cells”.
# as §5, §6, §7, §8, §9, §10, §11, §12
# [(ODT)HIV^+]−[(ODC)HIV^+]/[(ODT)HIV^−]−[(ODC)HIV^−]×100
# Where: • (ODT)HIV^+ represents the optical density measurement at 540 nm, 5 days after infection, for the cells infected with HIV and treated with the composition of the invention, that is to say in the presence of molecules of the composition of the invention; • (ODC) HIV^+ represents the optical density measurement at 540 nm, 5 days after infection, for the cells infected with HIV in the absence of the molecules of the composition of the invention; • (ODT) HIV^− represents the optical density measurement at 540 nm, 5 days after infection, for the cells not infected with HIV and treated with the composition of the invention, that is to say in the presence of the molecules of the composition of the invention; i(ODC) HIV^− represents the optical density measurement at 540 nm, 5 days after infection, for the cells not infected with HIV in the absence of the molecules of the composition of the invention.
# The selectivity index represents the ratio CC50/EC50. […]
# HIV-1 or HIV-2 = assay: In vitro anti-HIV test of fractions and isolated compounds, virus type not separated in the statement; assay type: cell-based
# Experimental: The anti-HIV activity was tested in vitro according to the method of Clerq E on each of the abovementioned fractions AsC4.1, AsC4.2, AsC4.3, AsC4.4, AsC4.5, AsC4.6, AsC4.7 and AsC4.8.
# More than ten different compounds were obtained for all of the different mobile phases used. Each compound was individually tested against HIV-1 and HIV-2 according to the in vitro method mentioned above.
# MT-4 cells = assay: 50% cytotoxic concentration in MT-4 cells (MTT); assay type: cell-based; conditions: for HIV-1 CC 50: HIV-1, average over duplicates; for HIV-2 CC 50: HIV-2, average over duplicates; for CC50: Homo sapiens
# Experimental: as §3, §4, §7, §8, §9, §10
# The CC50 is the concentration of active molecules that makes it possible to decrease by 50% the […]. In other words, it is the concentration of active molecules that makes it possible to decrease by 50% the viability of cells.
# [1] = "significant" = CC50≥45 μg/mL and selectivity index ≥50
# [2] = infected MT-4 cells, 5 days after infection, MTT, average over duplicates
SMILES,"biological (inhibitory) activity against HIV-1, in words (HIV type 1)","biological (inhibitory) activity against HIV-2, in words (HIV type 2 (strain ROD))","biological activity against HIV (HIV-1 or HIV-2), in words (HIV-1 or HIV-2; [1])",HIV-1 IC 50 (HIV type 1; [2]) [µg/mL],HIV-1 SI (HIV type 1),HIV-2 IC 50 (HIV type 2 (strain ROD); [2]) [µg/mL],HIV-2 SI (HIV type 2 (strain ROD)),HIV-1 CC 50 (MT-4 cells) [µg/mL],HIV-2 CC 50 (MT-4 cells) [µg/mL],further results
CC1(C)CC[C@]2(C(=O)O)CC=C3[C@]4(C)CCC5C(C)(C)[C@@H](OC(=O)c6ccccc6)[C@H](O)C[C@]5(C)C4CC[C@@]3(C)C2C1 (some centres unmarked) [molecule B],at least two times greater,at least two times greater,significant biological activity,–,–,–,–,–,–,"biological activity against HIV (HIV-1 or HIV-2), in words (HIV-1 or HIV-2; ""significant"" = CC50≥45 μg/mL and selectivity index ≥50, listed as AsC4.5.7.2): “significant” biological activity"
"Nc1ccn([C@H]2CC[C@@H](CO)O2)c(=O)n1 [Dideoxycitidine, dideoxycitidine]",–,–,–,0.16,>20,0.19,>20,0.12,0.11,–
CC(=O)OC1CCC2(C)C3CCC4C(=CC(=O)C5C(C)(C)CCCC45C)C3(C)CCC2C1(C)C (centres unmarked) [molecule A],at least two times greater,at least two times greater,significant biological activity,–,–,–,–,–,–,"biological activity against HIV (HIV-1 or HIV-2), in words (HIV-1 or HIV-2; ""significant"" = CC50≥45 μg/mL and selectivity index ≥50, listed as AsC4.5.1.1): “significant” biological activity"
"Cc1ccnc2c1NC(=O)c1cccnc1N2C1CC1 [Nevirapine, nevirapine]",–,–,–,–,>4,–,<1,–,–,"IC50 (HIV type 1; Human immunodeficiency virus 1, MT4, 120 h, infected MT-4 cells, 5 days after infection, MTT, average over duplicates, read-out: HIV-1 IC 50): 0.05 µg/mL; IC50 (HIV type 2 (strain ROD); Human immunodeficiency virus 2, MT4, 120 h, infected MT-4 cells, 5 days after infection, MTT, average over duplicates, read-out: HIV-2 IC 50): > 4 µg/mL; CC50 (MT-4 cells; MT4, HIV-1, average over duplicates, read-out: HIV-1 CC 50): 0.011 µg/mL; CC50 (MT-4 cells; MT4, HIV-2, average over duplicates, read-out: HIV-2 CC 50): > 4 µg/mL"
"O=c1[nH]cnc2c1ncn2[C@H]1CC[C@@H](CO)O1 [Dideoxyinosine, dideoxyinosine]",–,–,–,2.09,>50,3.78,>50,0.68,1.22,–

# Reference: US20190350995A1, “THERAPEUTIC COMPOSITION DERIVED FROM ANTHOSTEMA SENEGALENSE” (LABORATOIRE MICHEL IDERNE, priority 2016, published 2019)
